Measured values taken from ChEMBL document CHEMBL4613230, “Antifungal Sesquiterpenoids, Rhodocoranes, from Submerged Cultures of the Wrinkled Peach Mushroom, Rhodotus palmatus” (J Nat Prod, 2020).
Converted amounts (≈) assume the structure as drawn. The source made the active and inactive calls. No cut-off for these calls is given here.

Columns and labels:
Rhodotorula glutinis = assay: Antimicrobial activity against Rhodotorula glutinis DSM 10134 by serial dilution assay; type: functional, organism-based
Mucor plumbeus = assay: Antimicrobial activity against Mucor plumbeus MUCL49355 by serial dilution assay; type: functional
Escherichia coli = assay: Antimicrobial activity against Escherichia coli harboring TolC mutant by serial dilution assay; type: functional
A-431 = assay: Cytotoxicity against human A431 cells by MTT assay; type: functional, cell-based
Micrococcus luteus = assay: Antimicrobial activity against Micrococcus luteus DSM 1790 by serial dilution assay; type: functional
L929 = assay: Cytotoxicity against mouse L929 cells by MTT assay; type: cell-based
Bacillus subtilis = assay: Antimicrobial activity against Bacillus subtilis DSM 10 by serial dilution assay; type: functional
KB 3-1 = assay: Cytotoxicity against human KB3-1 cells by MTT assay; type: functional, cell-based
Staphylococcus aureus = assay: Antimicrobial activity against Staphylococcus aureus DSM346 by serial dilution assay; type: functional
MCF7 = assay: Cytotoxicity against human MCF7 cells by MTT assay; type: functional, cell-based

`CC1=C(O)C(=O)[C@]23C(=O)[C@H]1[C@H](O)[C@@H](C)[C@H]2CC[C@H]3C` was tested, and the Activity (Rhodotorula glutinis) was “Active”.
In the case of `CC1=CC(=O)[C@]2(C1=O)[C@H](C)CC[C@@H]2[C@H](C)CO`, the Activity (Rhodotorula glutinis) is reported as “Active”.
For `CC1=C/C(=C2/[C@H](C)CC[C@@H]2[C@H](C)CO)OC1=O`, the Activity (Rhodotorula glutinis) was “Active” and the MIC (Mucor plumbeus) was 8.3 µg/mL (≈ 35.1 µM).
For `Cc1cc(C2=C(C(C)C)CC[C@H]2C)oc(=O)c1O`, the MIC (Escherichia coli) was 33.3 to 66.7 µg/mL (≈ 134 to 269 µM), the IC50 (A-431) was 12 µM and the Activity (Rhodotorula glutinis) was “Active”. The MIC (Micrococcus luteus) was 33.3 to 66.7 µg/mL (≈ 134 to 269 µM), the IC50 (L929) was 5.6 µM and the MIC (Bacillus subtilis) was 33.3 to 66.7 µg/mL (≈ 134 to 269 µM). For the same compound, the IC50 (KB 3-1) was 2.9 µM, the MIC (Staphylococcus aureus) was 33.3 to 66.7 µg/mL (≈ 134 to 269 µM) and the IC50 (MCF7) was 9.3 µM.
With `CC1=C/C(=C2/[C@H](C)CC[C@@H]2C(C)C)OC1=O` the MIC (Escherichia coli) was 33.3 to 66.7 µg/mL (≈ 151 to 303 µM), the Activity (Rhodotorula glutinis) was “Active” and the MIC (Micrococcus luteus) was 33.3 to 66.7 µg/mL (≈ 151 to 303 µM). The MIC (Mucor plumbeus) was 8.3 µg/mL (≈ 37.7 µM), the MIC (Bacillus subtilis) was 33.3 to 66.7 µg/mL (≈ 151 to 303 µM) and the MIC (Staphylococcus aureus) was 33.3 to 66.7 µg/mL (≈ 151 to 303 µM).
For `Cc1cc([C@]23OC[C@@H](C)[C@H]2CC[C@H]3C)oc(=O)c1O`, the Activity (Rhodotorula glutinis) was “Active”.
With `CC1=C/C(=C2\[C@H](C)CC[C@@H]2[C@H](C)CO)OC1=O` the Activity (Rhodotorula glutinis) was “Active”.
